Test results: patent US9688695B2, “Imidazothiadiazole and imidazopyrazine derivatives as protease activated receptor 4 (PAR4) inhibitors for treating platelet aggregation” (BRISTOL-MYERS SQUIBB COMPANY, priority 2012, dated 2017)

Target: PAR4 (Homo sapiens (Human), UniProt Q96RI0)
Assay: FLIPR assay in PAR4-expressing HEK293 cells (PAR4 antagonist activity, calcium mobilization)
Assay type: cell-based
Settings: H-Ala-Phe(4-F)-Pro-Gly-Trp-Leu-Val-Lys-Asn-Gly-NH2-induced calcium mobilization
Outline: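 HEK293 EBNA cells stably expressing human PAR4 (also endogenous PAR1) preincubated 30 min at room temperature with compound in HBSS/10 mM HEPES, 0.67% DMSO final. PAR4 agonist peptide then added and intracellular calcium mobilization monitored by fluorescence.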

PAR4, sequence (Q96RI0 18-385): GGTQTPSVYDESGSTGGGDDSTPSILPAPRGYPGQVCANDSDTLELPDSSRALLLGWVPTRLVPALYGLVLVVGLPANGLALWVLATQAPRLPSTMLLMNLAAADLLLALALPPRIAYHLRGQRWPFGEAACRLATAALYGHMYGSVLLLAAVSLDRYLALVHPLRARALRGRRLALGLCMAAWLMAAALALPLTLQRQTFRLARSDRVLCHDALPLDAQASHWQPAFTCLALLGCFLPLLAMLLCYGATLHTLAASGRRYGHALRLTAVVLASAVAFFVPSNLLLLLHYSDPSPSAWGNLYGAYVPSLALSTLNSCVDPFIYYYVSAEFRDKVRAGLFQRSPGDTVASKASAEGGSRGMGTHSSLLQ

| EC50 | Compound |
| --- | --- |
| 0.92 nM | COc1cc(OCc2csc(C3(O)CCC(C(=O)O)CC3)n2)c2cc(-c3cn4nc(OC)sc4n3)oc2c1 (stereo not shown) [Example 150, 4-Hydroxy-4-(4-(((6-methoxy-2-(2-methoxyimidazo[2,1-b][1,3,4]thiadiazol-6-yl)benzofuran-4-yl)oxy)methyl)thiazol-2-yl)cyclohexanecarboxylic acid] |
| 0.36 nM | COc1nn2cc(-c3cc4c(OCc5csc(-c6ccc(C(=O)N7CCCC7)cc6)n5)cc(F)cc4o3)nc2s1 [Example 183, (4-(4-(((6-Fluoro-2-(2-methoxyimidazo[2,1-b][1,3,4]thiadiazol-6-yl)benzofuran-4-yl)oxy)methyl)thiazol-2-yl)phenyl)(pyrrolidin-1-yl)methanone] |
| 1.7 nM | COc1cc(OCc2csc(C3(c4ccc(Br)cc4)CCOCC3)n2)c2cc(-c3cn4nc(OC)sc4n3)oc2c1 [Example 153, 6-(4-((2-(4-(4-Bromophenyl)tetrahydro-2H-pyran-4-yl)thiazol-4-yl)methoxy)-6-methoxybenzofuran-2-yl)-2-methoxyimidazo[2,1-b][1,3,4]thiadiazole] |
| 0.32 nM | CCc1sc(N2CCOCC2)nc1COc1cc(OC)cc2oc(-c3cn4nc(OC)sc4n3)cc12 [Example 105, 4-(5-Ethyl-4-(((6-methoxy-2-(2-methoxyimidazo[2,1-b][1,3,4]thiadiazol-6-yl)benzofuran-4-yl)oxy)methyl)thiazol-2-yl)morpholine] |
| 0.29 nM | COc1cc(OCc2csc(C3(F)CCOCC3)n2)c2cc(-c3cn4nc(C)ccc4n3)oc2c1 [Example 212, 2-(4-Fluorotetrahydro-2H-pyran-4-yl)-4-(((6-methoxy-2-(6-methylimidazo[1,2-b]pyridazin-2-yl)benzofuran-4-yl)oxy)methyl)thiazole] |
| 0.78 nM | COc1cc(OCc2csc(C3CCN(C(=O)c4ccccc4)CC3)n2)c2cc(-c3cn4nc(OC)sc4n3)oc2c1 [Example 110, (4-(4-(((6-Methoxy-2-(2-methoxyimidazo[2,1-b][1,3,4]thiadiazol-6-yl)benzofuran-4-yl)oxy)methyl)thiazol-2-yl)piperidin-1-yl)(phenyl)methanone] |
| 0.75 nM | COc1cc(OCc2csc(-c3ccc(C#N)cc3)n2)c2cc(-c3cn4nc(C)ccc4n3)oc2c1 [Example 224] |
| 0.67 nM | COc1cc(OCc2csc(C3(c4ccccc4)CCOCC3)n2)c2cc(-c3cn4nc(OC)sc4n3)oc2c1 [Example 162, 2-Methoxy-6-(6-methoxy-4-((2-(4-phenyltetrahydro-2H-pyran-4-yl)thiazol-4-yl)methoxy)benzofuran-2-yl)imidazo[2,1-b][1,3,4]thiadiazole] |
| 1.7 nM | COc1cc(OCc2csc(C3(N[S@+]([O-])C(C)(C)C)CCOCC3)n2)c2cc(-c3cn4nc(OC)sc4n3)oc2c1 [Example 170, (R)-N-(4-(4-(((6-Methoxy-2-(2-methoxyimidazo[2,1-b][1,3,4]thiadiazol-6-yl)benzofuran-4-yl)oxy)methyl)thiazol-2-yl)tetrahydro-2H-pyran-4-yl)-2-methylpropane-2-sulfinamide] |
| 0.77 nM | COc1cc(OCc2nc(-c3ccc(C(=O)NCC(F)(F)F)cc3)sc2C)c2cc(-c3cn4nc(OC)sc4n3)oc2c1 [Example 47, 4-(4-(((6-Methoxy-2-(2-methoxyimidazo[2,1-b][1,3,4]thiadiazol-6-yl)benzofuran-4-yl)oxy)methyl)-5-methylthiazol-2-yl)-N-(2,2,2-trifluoroethyl)benzamide] |
| 1.9 nM | COc1cc(OCc2csc(N3CCN(S(C)(=O)=O)CC3)n2)c2cc(-c3cn4nc(C)ccc4n3)oc2c1 [Example 236] |
| 0.52 nM | COc1cc(OCc2csc(C3(c4ccccc4F)CCOCC3)n2)c2cc(-c3cn4nc(OC)sc4n3)oc2c1 [Example 156, 6-(4-((2-(4-(2-Fluorophenyl)tetrahydro-2H-pyran-4-yl)thiazol-4-yl)methoxy)-6-methoxybenzofuran-2-yl)-2-methoxyimidazo[2,1-b][1,3,4]thiadiazole] |
| 0.34 nM | COc1cc(OCc2nc(-c3ccnc(F)c3)sc2C(C)C)c2cc(-c3cn4nc(OC)sc4n3)oc2c1 [Example 43, 6-(4-((2-(2-Fluoropyridin-4-yl)-5-isopropylthiazol-4-yl)methoxy)-6-methoxybenzofuran-2-yl)-2-methoxyimidazo[2,1-b][1,3,4]thiadiazole] |
| 1.2 nM | COc1cc(OCc2csc(C3(F)CCC(F)(F)CC3)n2)c2cc(-c3cn4nc(OC)sc4n3)oc2c1 [Example 136, 2-Methoxy-6-(6-methoxy-4-((2-(1,4,4-trifluorocyclohexyl)thiazol-4-yl)methoxy)benzofuran-2-yl)imidazo[2,1-b][1,3,4]thiadiazole] |
| 1.1 nM | COc1cc(OCc2nc(-c3ccccc3)sc2Cl)c2cc(-c3cn4nc(OC)sc4n3)oc2c1 [Example 85, 6-(4-((5-Chloro-2-phenylthiazol-4-yl)methoxy)-6-methoxybenzofuran-2-yl)-2-methoxyimidazo[2,1-b][1,3,4]thiadiazole] |
| 0.85 nM | COc1cc(OCc2csc(-c3ccc(C(=O)N4CCCCCC4)cc3)n2)c2cc(-c3cn4nc(OC)sc4n3)oc2c1 [Example 303] |
| 0.59 nM | COc1cc(OCc2csc(N3CCC(F)(F)CC3)n2)c2cc(-c3cn4nc(OC)sc4n3)oc2c1 [Example 31] |

| EC50 | Compound |
| --- | --- |
| 0.25 nM | COc1cc(OCc2csc(N3CCN(S(C)(=O)=O)CC3)n2)c2cc(-c3cn4nc(OC)sc4n3)oc2c1 [Example 100, 2-Methoxy-6-(6-methoxy-4-((2-(4-(methylsulfonyl)piperazin-1-yl)thiazol-4-yl)methoxy)benzofuran-2-yl)imidazo[2,1-b][1,3,4]thiadiazole] |
| 0.18 nM | COc1cc(OCc2csc(-c3ccc(F)nc3)n2)c2cc(-c3cn4nc(C)ccc4n3)oc2c1 [Example 228] |
| 1.2 nM | COc1cc(OCc2csc(-c3cccc(OC(C)=O)c3)n2)c2cc(-c3cn4nc(C)ccc4n3)oc2c1 [Example 221] |
| 1.3 nM | COc1cc(OCc2csc(-c3ccc(C(=O)NC4CC4)cc3)n2)c2cc(-c3cn4nc(OC)sc4n3)oc2c1 [Example 315] |
| 0.38 nM | COc1cc(OCc2csc(CCC3CC3)n2)c2cc(-c3cn4nc(OC)sc4n3)oc2c1 [Example 60] |
| 1.3 nM | COC[C@@H]1CCCN1c1nc(COc2cc(OC)cc3oc(-c4cn5nc(OC)sc5n4)cc23)cs1 [Example 107, (S)-2-Methoxy-6-(6-methoxy-4-((2-(2-(methoxymethyl)pyrrolidin-1-yl)thiazol-4-yl)methoxy)benzofuran-2-yl)imidazo[2,1-b][1,3,4]thiadiazole] |
| 0.69 nM | COc1cc(OCc2csc(C3CCN(C(=O)OC(C)(C)C)CC3)n2)c2cc(-c3cn4nc(OC)sc4n3)oc2c1 [Example 109, tert-Butyl 4-(4-(((6-methoxy-2-(2-methoxyimidazo[2,1-b][1,3,4]thiadiazol-6-yl)benzofuran-4-yl)oxy)methyl)thiazol-2-yl)piperidine-1-carboxylate] |
| 0.36 nM | COc1cc(OCc2csc(N3CCN(S(=O)(=O)c4ccc(C#N)cc4)CC3)n2)c2cc(-c3cn4nc(OC)sc4n3)oc2c1 [Example 101, 4-((4-(4-(((6-Methoxy-2-(2-methoxyimidazo[2,1-b][1,3,4]thiadiazol-6-yl)benzofuran-4-yl)oxy)methyl)thiazol-2-yl)piperazin-1-yl)sulfonyl)benzonitrile] |
| 0.86 nM | COc1cc(OCc2csc(-c3ccc(OC(F)(F)F)cc3)n2)c2cc(-c3cn4nc(C)ccc4n3)oc2c1 [Example 210, 4-(((6-Methoxy-2-(6-methylimidazo[1,2-b]pyridazin-2-yl)benzofuran-4-yl)oxy)methyl)-2-(4-(trifluoromethoxy)phenyl)thiazole] |
| 0.35 nM | COc1cc(OCc2csc(C3(O)CCC(=O)CC3)n2)c2cc(-c3cn4nc(OC)sc4n3)oc2c1 [Example 128, 4-Hydroxy-4-(4-(((6-methoxy-2-(2-methoxyimidazo[2,1-b][1,3,4]thiadiazol-6-yl)benzofuran-4-yl)oxy)methyl)thiazol-2-yl)cyclohexan-one] |
| 0.41 nM | COc1ccc(C2(c3nc(COc4cc(OC)cc5oc(-c6cn7nc(OC)sc7n6)cc45)cs3)CCOCC2)cc1 [Example 159, 2-Methoxy-6-(6-methoxy-4-((2-(4-(4-methoxyphenyl)tetrahydro-2H-pyran-4-yl)thiazol-4-yl)methoxy)benzofuran-2-yl)imidazo[2,1-b][1,3,4]thiadiazole] |
| 0.72 nM | COc1nn2cc(-c3cc4c(OCc5csc(-c6ccc(C(=O)NCC(F)(F)F)cc6)n5)cc(F)cc4o3)nc2s1 [Example 181, 4-(4-(((6-Fluoro-2-(2-methoxyimidazo[2,1-b][1,3,4]thiadiazol-6-yl)benzofuran-4-yl)oxy)methyl)thiazol-2-yl)-N-(2,2,2-trifluoroethyl)benzamide] |
| 0.65 nM | COc1cc(OCc2csc(-c3cccnc3)n2)c2cc(-c3cn4nc(OC)sc4n3)oc2c1 [Example 30] |
| 0.32 nM | COc1cc(OCc2csc(-c3ccno3)n2)c2cc(-c3cn4nc(OC)sc4n3)oc2c1 [Example 116, 5-(4-(((6-Methoxy-2-(2-methoxyimidazo[2,1-b][1,3,4]thiadiazol-6-yl)benzofuran-4-yl)oxy)methyl)thiazol-2-yl)isoxazole] |
| 0.72 nM | COc1cc(OCc2nc(N3CCOCC3)sc2C(F)(F)F)c2cc(-c3cn4nc(C)ccc4n3)oc2c1 [Example 220] |
| 1.1 nM | COc1cc(OCc2csc(C3(c4ccc(Cl)cc4)CCOCC3)n2)c2cc(-c3cn4nc(OC)sc4n3)oc2c1 [Example 154, 6-(4-((2-(4-(4-Chlorophenyl)tetrahydro-2H-pyran-4-yl)thiazol-4-yl)methoxy)-6-methoxybenzofuran-2-yl)-2-methoxyimidazo[2,1-b][1,3,4]thiadiazole] |
| 1.3 nM | COc1nn2cc(-c3cc4c(OCc5csc(-c6cccc(C)c6)n5)cc(Cl)cc4o3)nc2s1 [Example 189, 6-(6-Chloro-4-((2-(m-tolyl)thiazol-4-yl)methoxy)benzofuran-2-yl)-2-methoxyimidazo[2,1-b][1,3,4]thiadiazole] |
